Results as given in publication PMC10734773, “Synthesis of benzoyl hydrazones having 4-hydroxy-3,5-dimethoxy phenyl ring, their biological activities, and molecular modeling studies on enzyme inhibition activities” (Turkish Journal of Chemistry, 2021).

Legend:
[1] = biological target: T1, BChE (butyrylcholinesterase from horse serum) (Equus caballus, UniProt P81908); experiment: Ellman assay, […] nm; format: biochemical; conditions: butyrylthiocholine chloride, DTNB, pH 8.0, room conditions, 15 min preincubation
T1 construct: native enzyme preparation from horse serum
T1 sequence (P81908 whole entry): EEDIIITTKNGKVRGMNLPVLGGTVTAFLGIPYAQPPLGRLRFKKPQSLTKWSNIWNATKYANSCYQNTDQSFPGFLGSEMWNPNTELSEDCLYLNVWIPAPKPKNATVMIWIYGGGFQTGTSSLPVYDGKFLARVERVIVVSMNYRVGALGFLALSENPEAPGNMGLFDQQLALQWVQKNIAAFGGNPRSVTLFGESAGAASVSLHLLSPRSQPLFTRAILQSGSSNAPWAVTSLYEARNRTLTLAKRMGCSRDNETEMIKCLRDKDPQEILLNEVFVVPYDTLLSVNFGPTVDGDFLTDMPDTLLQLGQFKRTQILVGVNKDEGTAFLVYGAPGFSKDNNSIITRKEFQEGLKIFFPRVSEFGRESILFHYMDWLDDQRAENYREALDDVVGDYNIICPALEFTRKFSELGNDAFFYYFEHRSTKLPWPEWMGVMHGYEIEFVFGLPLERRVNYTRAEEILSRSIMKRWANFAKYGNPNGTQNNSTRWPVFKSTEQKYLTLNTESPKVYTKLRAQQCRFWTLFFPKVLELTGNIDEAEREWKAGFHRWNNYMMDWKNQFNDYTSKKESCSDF

[2] = biological target: T2, Tyrosinase (tyrosinase mushroom); experiment: spectrophotometric dopachrome assay, […] nm; format: biochemical, Agaricus bisporus; conditions: L-DOPA, pH 6.8, 37 °C, 10 min preincubation
T2 construct: gene PPO3; native mushroom tyrosinase preparation, isoenzyme mixture not resolved; only 'mushroom' given

[3] = biological target: AChE (acetylcholinesterase from eel) (Electrophorus electricus, UniProt O42275); conditions: acetylthiocholine-type substrate (AcI [sic]), DTNB, pH 8.0, 25 °C, 15 min preincubation
AChE (acetylcholinesterase from eel), sequence (O42275 24-633): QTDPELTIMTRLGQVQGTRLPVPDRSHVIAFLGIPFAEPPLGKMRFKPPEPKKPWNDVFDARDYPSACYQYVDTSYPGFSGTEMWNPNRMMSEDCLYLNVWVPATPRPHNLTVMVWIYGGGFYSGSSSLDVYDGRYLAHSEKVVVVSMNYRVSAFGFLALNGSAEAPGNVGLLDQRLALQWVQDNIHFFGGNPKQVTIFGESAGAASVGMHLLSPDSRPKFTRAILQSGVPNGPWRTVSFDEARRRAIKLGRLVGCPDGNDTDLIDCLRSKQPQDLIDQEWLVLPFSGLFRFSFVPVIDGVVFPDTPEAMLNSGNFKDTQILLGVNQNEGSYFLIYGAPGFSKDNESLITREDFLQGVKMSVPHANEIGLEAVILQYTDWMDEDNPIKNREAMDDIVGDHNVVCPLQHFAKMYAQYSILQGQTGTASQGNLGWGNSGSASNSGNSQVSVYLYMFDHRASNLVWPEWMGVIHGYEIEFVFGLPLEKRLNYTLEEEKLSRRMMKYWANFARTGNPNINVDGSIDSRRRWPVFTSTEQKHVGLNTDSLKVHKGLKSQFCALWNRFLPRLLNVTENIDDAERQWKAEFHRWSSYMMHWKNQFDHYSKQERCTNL

| Structure (SMILES) | Anticholinesterase Activity / BChE assay (IC50 μM/mL) [1] | Tyrosinase activity (IC50 mM/mL) [2] | Anticholinesterase Activity / AChE assay (IC50 μM/mL) (IC50 μM/mL) [3] |
| --- | --- | --- | --- |
| COc1cc(C=NNC(=O)c2ccccc2)cc(OC)c1O [7a, N′-(4-hydroxy-3,5-dimethoxybenzylidene)benzohydrazide] | 122.04 ± 0.87 μM/mL | 88.73 ± 0.26 mM/mL | 101.04 ± 0.49 μM/mL |
| COc1cc(C=NNC(=O)c2ccc(Br)cc2)cc(OC)c1O [7b, 4-bromo-N′-(4-hydroxy-3,5-dimethoxybenzylidene)benzohydrazide] | 116.82 ± 0.66 μM/mL | 82.08 ± 1.09 mM/mL | 93.00 ± 1.11 μM/mL |
| COc1cc(C=NNC(=O)c2ccc(Cl)cc2)cc(OC)c1O [7c, 4-chloro-N′-(4-hydroxy-3,5-dimethoxybenzylidene)benzohydrazide] | 102.87 ± 0.48 μM/mL | 70.91 ± 0.24 mM/mL | 82.14 ± 0.56 μM/mL |
| COc1cc(C=NNC(=O)c2ccc(F)cc2)cc(OC)c1O [7d, 4-fluoro-N′-(4-hydroxy-3,5-dimethoxybenzylidene)benzohydrazide] | 109.44 ± 0.09 μM/mL | 64.38 ± 0.99 mM/mL | 88.37 ± 0.11 μM/mL |
| COc1ccc(C(=O)NN=Cc2cc(OC)c(O)c(OC)c2)cc1 [7e, N′-(4-hydroxy-3,5-dimethoxybenzylidene)-4-methoxybenzohydrazide] | 96.33 ± 0.61 μM/mL | 10.15 ± 0.04 mM/mL | 75.01 ± 0.94 μM/mL |
| COc1cc(C=NNC(=O)c2ccc([N+](=O)[O-])cc2)cc(OC)c1O [7f, N′-(4-hydroxy-3,5-dimethoxybenzylidene)-4-nitrobenzohydrazide] | 52.39 ± 0.49 μM/mL | 18.22 ± 0.35 mM/mL | 40.07 ± 0.25 μM/mL |
| COc1cc(C=NNC(=O)c2ccccc2C(F)(F)F)cc(OC)c1O [7g, N′-(4-hydroxy-3,5-dimethoxybenzylidene)-2-(trifluoromethyl)benzohydrazide] | 83.08 ± 0.34 μM/mL | 61.07 ± 0.55 mM/mL | 70.13 ± 0.89 μM/mL |
| COc1cc(C=NNC(=O)c2cccc(C(F)(F)F)c2)cc(OC)c1O [7h, N′-(4-hydroxy-3,5-dimethoxybenzylidene)-3-(trifluoromethyl)benzohydrazide] | 88.70 ± 0.77 μM/mL | 56.88 ± 0.37 mM/mL | 73.75 ± 0.34 μM/mL |
| COc1cc(C=NNC(=O)c2ccc(C(F)(F)F)cc2)cc(OC)c1O [7i, N′-(4-hydroxy-3,5-dimethoxybenzylidene)-4-(trifluoromethyl)benzohydrazide] | 64.09 ± 0.30 μM/mL | 49.73 ± 0.12 mM/mL | 51.08 ± 0.41 μM/mL |
| COc1cc(C=NNC(=O)c2cc(C(F)(F)F)cc(C(F)(F)F)c2)cc(OC)c1O [7j, N′-(4-hydroxy-3,5-dimethoxybenzylidene)-3,5-bis-(trifluoromethyl)benzohydrazide] | 57.30 ± 0.87 μM/mL | 40.08 ± 0.86 mM/mL | 44.83 ± 0.12 μM/mL |
| COc1cc(C=NNC(=O)c2ccccc2OC(F)(F)F)cc(OC)c1O [7k, N′-(4-hydroxy-3,5-dimethoxybenzylidene)-2-(trifluoromethoxy)benzohydrazide] | 69.18 ± 0.98 μM/mL | 29.78 ± 0.43 mM/mL | 59.31 ± 0.77 μM/mL |
| COc1cc(C=NNC(=O)c2cccc(OC(F)(F)F)c2)cc(OC)c1O [7l, N′-(4-hydroxy-3,5-dimethoxybenzylidene)-3-(trifluoromethoxy)benzohydrazide] | 80.62 ± 0.36 μM/mL | 24.30 ± 0.78 mM/mL | 68.09 ± 0.02 μM/mL |
| COc1cc(C=NNC(=O)c2ccc(OC(F)(F)F)cc2)cc(OC)c1O [7m, N′-(4-hydroxy-3,5-dimethoxybenzylidene)-4-(trifluoromethoxy)benzohydrazide] | 77.26 ± 0.42 μM/mL | 36.62 ± 0.56 mM/mL | 62.04 ± 0.39 μM/mL |
